Laboratory results reported in patent publication US20060122267A1, “Compositions and methods for attenuating mitochondria-mediated cell injury” (priority 2003, published 2006).

Tested on: mitochondrial proteins
Assay: Biotin-switch analysis of mitochondrial protein S-nitrosation
Assay type: biochemical, rat
Procedure: Rat heart mitochondria were isolated using differential centrifugation (Tompkins, et al. (2005) Biochim. Biophys. Acta PMID: 16278076). Protein was determined by the Folin-phenol method (Lowry, et al. (1951) J. Bio. Chem. 193:265-75) against a standard curve constructed using bovine serum albumin. Mitochondrial incubations and all subsequent steps were performed in the dark. One mg of mitochondrial protein was suspended in 1 mL of mitochondrial respiration buffer (Tompkins, et al. (2005) supra) containing respiratory substrates glutamate (5 mM), malate (2.5 mM) and succinate (5 mM). […] Samples were centrifuged (5 minutes, 14,000×g), and supernatants removed. The pellets were then resuspended in 1 mL of respiration buffer, and centrifuged again. Pellets were frozen in liquid N2 for subsequent analysis. For ONOO^− treatments, 4 μL of 25 mM ONOO^− stock (100 μM final concentration) was added the cap of the reaction tube, the cap quickly closed and the tube shaken immediately. The process was then repeated twice at 30 second intervals, for a total of 3 additions. Mitochondria were then pelleted, washed, and frozen as for S-nitrosoglutathione samples. Complex I activity was assayed as the rotenone-sensitive oxidation of NADH, at 340 nm in the presence of coenzyme Q1 (Borutaite, et al. (2000) supra). Complex IV was assayed by monitoring the cyanide-sensitive first-order oxidation of reduced cytochrome c, at 550 nm according to established methods (Cleeter, et al. (1994) supra).
For biotin-switch analysis, intact mitochondrial pellets (1 mg protein solubilized in extraction buffer) or chromatography column fractions were analyzed in accordance with known methods (Jaffrey & Snyder (2001) supra). Samples were separated in duplicate on non-reducing SDS-PAGE gels; half the gel was stained with COOMASSIE® blue, and the other half blotted and probed with streptavidin-HRP and ECL™ detection (GE biosciences). Blots and stained gels were aligned, and S-nitrosated proteins excised, trypsinized, and identified by peptide mass fingerprinting. Mass spectra (MALDI-TOF) were analyzed using the MASCOT™ algorithm available on the world-wide web at matrixscience.com.

N[C@@H](CCC(=O)N[C@@H](CSN=O)C(=O)NCC(=O)O)C(=O)O [S-nitrosoglutathione]
S-nitrosation of entire mitochondrial protein extract, comparison of NO donors (S-nitrosoglutathione 1 mM, DETA-NONOate 2 mM, ONOO- 3 additions of 100 μM, 37° C., 40 minutes): far more S-nitrosation than DETA-NONOate or ONOO^−
concentration at which formation of protein bound S-nitrosothiol saturates (biotin-switch and chemiluminescent data together): ~250 µM
concentration at which plateau of mitochondrial protein S-nitrosation is reached (dose response over 50-250 μM): ~200 µM
